Series [1] deals with TSPO A147T. In words: Radioligand ([^3H]1) displacement binding on membranes of HEK cells stably transfected with A147T TSPO. On the set-up: species or system human. As to conditions: for Ratio LAB/HAB: Ki at A147T TSPO / Ki at wild-type TSPO. As for the experimental part:
(§1) Binding affinities were measured as per our published protocol.21 Briefly, an Ultra‐Turrax homogeniser was used to prepare membranes from HEK cells stably transfected with wild‐type and A147T TSPO. […] Reactions were terminated by filtration through a 96‐well glass‐fibre filter plate (Millipore), and washed eight times with ice‐cold 50 mM Tris⋅HCl. […] Data were analysed using GraphPad Prism 6.0, and a four‐parameter nonlinear regression curve fit was used to calculate K i values. Data are expressed as the mean±SEM from at least three independent experiments.

A short description of series [2]: In vivo PET imaging of the brain in healthy rats. The note with it: healthy male Wistar rats, i.v. tracer injection, 60 min acquisition, n=2. As to the method: The time–activity curve indicates distribution of radioactivity in the brain, albeit in a modest amount as the investigated animals were healthy.
Male Wistar rats (n=2; weight: 230 and 302 g) were obtained from Charles River Laboratories, UK. The rats were housed in Techniplast 2000P IVC cages on a layer of Aspen bedding in a room with constant temperature (21±2 °C) and fixed 12 h light–dark regime (lights on at 7:00 am). Food and water were available ad libitum. After arrival, the rats were allowed to acclimatise for at least seven days. This research was regulated under the Animals (Scientific Procedures) Act 1986 Amendment Regulations 2012 following ethical review by the University of Cambridge Animal Welfare and Ethical Review Body (AWERB).
Prior to scanning, the animals were anaesthetised using isofluorane at a concentration of 5 % in O2, and anaesthesia was maintained at 1.5–2.5 % isofluorane in O2. The femoral vein was cannulated for tracer injection. […]
Three‐dimensional regions of interest (ROIs) were drawn over the whole brain on an MRI template using PMOD software (version 3.2; PMOD technologies, Zurich, Switzerland). […] The results were expressed as dimensionless standardised uptake values (SUV=[(tissue activity)×(body weight)]/injected dose). SUVs were calculated assuming a specific gravity of 1 g mL^−1 for brain tissue.

Series [3] deals with rat heart TSPO. On the set-up: method as in earlier work. The note with it: read-out: affinity, rat heart TSPO assay; cited from earlier work.
Series [4] has as its target T1, human TSPO wild‐type (Homo sapiens, UniProt P30536).
T1 construct: expressed in transfected cells; host or cells: HEK cells, stably transfected; membranes
In words: Radioligand ([^3H]1) displacement binding on membranes of HEK cells stably transfected with wild-type TSPO. The note with it: HEK cell membranes, [^3H]1 10 nM, 4 °C, 90 min; mean±SEM, n=3; read-out: Ki (nM) at WT (Ala/Ala) HAB. As to the method:
Binding affinities were measured as per our published protocol.21 Briefly, an Ultra‐Turrax homogeniser was used to prepare membranes from HEK cells stably transfected with wild‐type and A147T TSPO. […] Reactions were terminated by filtration through a 96‐well glass‐fibre filter plate (Millipore), and washed eight times with ice‐cold 50 mM Tris⋅HCl. Microscint 0 was added to the dry filters, and radioactivity read in a Microbeta^2 2450 Microplate Counter (PerkinElmer). Data were analysed using GraphPad Prism 6.0, and a four‐parameter nonlinear regression curve fit was used to calculate K i values. Data are expressed as the mean±SEM from at least three independent experiments.

Series [5] deals with T2, TSPO A147T (Homo sapiens, UniProt P30536).
T2 construct: expressed in transfected cells; host or cells: HEK cells, stably transfected; membranes
T2 sequence (P30536 whole entry, stated change not applied): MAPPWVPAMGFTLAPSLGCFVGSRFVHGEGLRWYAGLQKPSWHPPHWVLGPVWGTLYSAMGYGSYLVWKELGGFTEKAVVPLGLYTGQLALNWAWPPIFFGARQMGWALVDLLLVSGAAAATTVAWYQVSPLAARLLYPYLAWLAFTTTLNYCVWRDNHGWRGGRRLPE
In words: Radioligand ([^3H]1) displacement binding on membranes of HEK cells stably transfected with A147T TSPO. As to the method:
as §1

Details of series [6]: method as in PMID 26697963, PMID 26551697, PMID 29114179. The note with it: cited from earlier work.
Series [7] concerns TSPO. As to conditions: cited from earlier work.
In series [8] the test system is TSPO A147T. On the set-up: method as in PMID 30108706. The note with it: cited from earlier work.
The test system of series [9] is TSPO. The arrangement: method as in PMID 22244939. The note with it: rats; cited from earlier work.

Here are results for eight compounds from PMC6563049, “Radiosynthesis of (R,S)‐[^18F]GE387: A Potential PET Radiotracer for Imaging Translocator Protein 18 kDa (TSPO) with Low Binding Sensitivity to the Human Gene Polymorphism rs6971” (Chemmedchem, 2019).

Where two headings read alike, the source gives them in different places.

T1 sequence (P30536 whole entry T147A): as the sequence (P30536 whole entry, stated change not applied) above, with T147A counted along it

With `CCN(Cc1ccccc1)C(=O)C1CCCc2c1c1c(OC)cccc1n2CCF` (racemic) [compound 6, N ‐Benzyl‐N‐ethyl‐9‐(2‐fluoroethyl)‐5‐methoxy‐2,3,4,9‐tetrahydro‐1H‐carbazole‐4‐carboxamide], in series [1] (conclusion from wild-type versus A147T binding), the “sensitivity to the human gene polymorphism rs6971” value is “low sensitivity”.

Regarding `CCN(Cc1ccccc1)C(=O)C1CCCc2c1c1c(OC)cccc1n2CC[18F]` (racemic) [racemic [^18F]6], in series [2], the “entry of radioactivity into the brain (PET)” value is reported as “enters the brain”.

Consider `CCN(Cc1ccccc1)C(=O)[C@@H]1CCCc2c1c1c(OC)cccc1n2CCF` [(R)-6, N ‐Benzyl‐N‐ethyl‐9‐(2‐fluoroethyl)‐5‐methoxy‐2,3,4,9‐tetrahydro‐1H‐carbazole‐4‐carboxamide], for which the Ki in series [3] is 22 nM.

In the case of `CCN(CC)C(=O)[C@H]1CCCc2c1c1c(OC)cccc1n2CCF` [(S)-5], the Ki in series [4] is 11.3 ± 0.6 nM; in series [5] (HEK cell membranes, [^3H]1 10 nM, 4 °C, 90 min, mean±SEM, n=3, read-out: Ki (nM) at Ala147Thr LAB) it was 58.3 ± 6.4 nM. In [1], the “Ratio LAB/HAB” value was 5.1.

Consider `CCN(Cc1ccccc1)C(=O)[C@H]1CCCc2c1c1c(OC)cccc1n2CCF` [(S)-6, N ‐Benzyl‐N‐ethyl‐9‐(2‐fluoroethyl)‐5‐methoxy‐2,3,4,9‐tetrahydro‐1H‐carbazole‐4‐carboxamide], for which the Ki was 36.3 ± 6.9 nM in [4], 47.3 ± 7 nM in series [5] and 1.04 nM in series [3]. In [1], the “Ratio LAB/HAB” value is listed as 1.3.

Consider `CC[C@@H](C)N(C)C(=O)c1cc2ccccc2c(-c2ccccc2Cl)n1` [[^11C]1, R‐1‐(2‐chlorophenyl)‐N‐methyl‐N‐(1‐methylpropyl)‐3‐isoquinoline carboxamide], for which the brain permeability entry in [6] is listed as “low brain permeability”.

With `CC[C@@H](C)N(C)C(=O)c1cc2ccccc2c(-c2ccccc2Cl)n1` [[^11C]1] [R‐1‐(2‐chlorophenyl)‐N‐methyl‐N‐(1‐methylpropyl)‐3‐isoquinoline carboxamide], in series [7] (selective antagonist of TSPO), the “affinity for TSPO” value is on record as 9.3 nM.

Take `CCN(CC)C(=O)C1CCCc2c1c1c(OC)cccc1n2CC[18F]` (stereo not shown) [[^18F]5]: the “binding affinity ratio LABs/HABs” value in series [8] is recorded as 5.1. The “affinity for TSPO (in words)” value in series [7] is “good affinity”. Besides, in series [9], the brain uptake result is listed as “good brain uptake” and the specific binding entry is listed as “high specific binding”.
